From US4894389A, “Novel aminoalkyl-substituted heterocyclic sulfur compounds” (Merrell Dow Pharmaceuticals Inc., priority 1987, dated 1990)

Assays:
[1] = biological target: T1, dopamine-β-hydroxylase (DBH) (Bos taurus, UniProt P15101); assay: DBH inhibition kinetics: conversion of tyramine to octopamine, HPLC with fluorometric quantitation; format: biochemical; settings: read-out: inhibition constant (ki)
T1 sequence (P15101 1-610): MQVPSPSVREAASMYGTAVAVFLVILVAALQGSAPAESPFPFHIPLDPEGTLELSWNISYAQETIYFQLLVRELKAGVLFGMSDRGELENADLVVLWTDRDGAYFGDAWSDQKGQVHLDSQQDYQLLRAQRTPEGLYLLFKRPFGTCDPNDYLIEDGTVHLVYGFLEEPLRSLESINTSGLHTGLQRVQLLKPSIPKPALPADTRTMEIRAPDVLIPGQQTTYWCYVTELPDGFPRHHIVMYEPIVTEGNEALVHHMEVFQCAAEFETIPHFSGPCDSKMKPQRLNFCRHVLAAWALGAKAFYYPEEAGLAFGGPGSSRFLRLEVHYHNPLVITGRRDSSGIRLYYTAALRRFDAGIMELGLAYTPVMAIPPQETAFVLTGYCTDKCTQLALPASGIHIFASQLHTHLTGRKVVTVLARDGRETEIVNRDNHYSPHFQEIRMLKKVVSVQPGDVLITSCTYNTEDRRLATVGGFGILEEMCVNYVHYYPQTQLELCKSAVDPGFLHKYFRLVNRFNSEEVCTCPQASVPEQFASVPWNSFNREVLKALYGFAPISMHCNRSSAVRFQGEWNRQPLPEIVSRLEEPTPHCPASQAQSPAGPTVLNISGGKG
Excerpt: The DBH inhibitory properties of the compounds of this invention can also readily be determined […] by standard and well known procedures for assaying the conversion of tyramine to octopamine in the presence of DBH, such as the procedure set forth by Feilchenfeld, N. B., Richter, H. W. and Waddell, W. H. in "Time-Resolved Assay of Dopamine Beta Hydroxylase Activity Utilizing High-Pressure Liquid Chromatography", Analyt. Biochem., 122, 124-128 (1982). Determination of the kinetics of DBH inhibition is exemplified by a procedure where the enzyme-assisted conversion of tyramine to octopamine is determined by incubating varying concentrations of test compound with constant concentrations of substrate, enzyme (DBH), molecular oxygen, an electron donor such as ascorbate and the necessary cofactors for the enzyme at optimal temperature and pH. After incubation, the product is separated out by high-performance liquid chromatography and quantitated fluorometrically, from which an inhibition constant (ki) can readily be calculated.

[2] = test system: spontaneously hypertensive rats; assay: Antihypertensive activity in vivo: continuous recording of arterial blood pressure in conscious spontaneously hypertensive rats; settings: ip
Procedure: For instance, test compounds are administered intraperitoneally (ip) to unanesthetized, spontaneously hypertensive rats and the arterial blood pressure is monitored continuously.

[3] = biological target: T1, dopamine-β-hydroxylase (DBH); assay: Time-dependent DBH inhibitory activity in vitro (tyramine substrate, oxygen uptake by polarographic electrode); format: biochemical
Procedure: Since DBH is a major enzyme in the synthetic pathway of norepinephrine (NE), the presence of a DBH inhibitor would act to decrease the amount of NE produced, and thereby have an antihypertensive effect. The DBH inhibitory properties of the compounds of this invention can readily be determined by standard and well-known procedures. […] The test compound is added at the desired concentration, and the system is incubated. Aliquots are taken at different time intervals and DBH activity is measured using tyramine as the substrate. The reaction is followed by measuring oxygen uptake using a polarographic electrode and an oxygen monitor by the method of S. May, et al., J. Biol. Chem., 256, 2258 (1981).

1,3-Dithiolane-2-ethanamine [Example 2]
Ki [1]: 11 µM

NC/C=C1/CCCS1 [Example 6]
in vivo antihypertensive activity [2]: active as an in vivo antihypertensive agent

NCC=C1SCCS1 [compound 1]
activity in the time-dependent DBH assay [3]: most active compound of the compounds tested
